11 compounds from BindingDB's records for doi:10.1016/s0960-894x(03)00792-3 (Eli Lilly, 2003) can be followed below.

Experiment [1] addresses Cyclin-dependent kinase 4/G1/S-specific cyclin-D1 (Homo sapiens, UniProt P11802). In words: CDK Kinase Inhibition Assay. To be noted: pH 7; 22 °C.
Experiment [2] concerns the target cAMP-dependent protein kinase catalytic subunit alpha (Bos taurus, UniProt P00517). In words: CDK Kinase Inhibition Assay. To be noted: 25 °C.

Sequence of Cyclin-dependent kinase 4/G1/S-specific cyclin-D1 (P11802 whole entry): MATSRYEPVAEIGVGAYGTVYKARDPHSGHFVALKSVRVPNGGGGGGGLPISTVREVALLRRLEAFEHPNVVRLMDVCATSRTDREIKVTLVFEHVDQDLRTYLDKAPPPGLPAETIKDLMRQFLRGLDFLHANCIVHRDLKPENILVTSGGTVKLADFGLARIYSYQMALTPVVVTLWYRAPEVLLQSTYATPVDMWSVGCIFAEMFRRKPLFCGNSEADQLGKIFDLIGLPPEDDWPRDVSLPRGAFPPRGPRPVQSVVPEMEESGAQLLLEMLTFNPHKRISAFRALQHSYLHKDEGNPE
Sequence of Cyclin-dependent kinase 4/G1/S-specific cyclin-D1 (P24385 whole entry, further chain): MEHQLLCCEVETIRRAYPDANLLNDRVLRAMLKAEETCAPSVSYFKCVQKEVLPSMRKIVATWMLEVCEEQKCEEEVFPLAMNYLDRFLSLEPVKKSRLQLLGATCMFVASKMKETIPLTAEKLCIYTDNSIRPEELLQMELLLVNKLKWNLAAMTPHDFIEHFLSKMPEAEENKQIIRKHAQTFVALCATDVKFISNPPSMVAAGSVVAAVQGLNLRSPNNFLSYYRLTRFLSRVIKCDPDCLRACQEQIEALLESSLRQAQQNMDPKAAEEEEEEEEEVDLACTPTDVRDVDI

Consider `COC(=O)[C@@]1(O)C[C@H]2O[C@]1(C)n1c3ccccc3c3c4c(c5c6ccccc6n2c5c31)C(=O)NC4`, for which 30 nM corresponded to half-maximal inhibition in experiment [1] (IC50).
On to `CN(C)CCCn1cc(C2=C(c3c[nH]c4ccccc34)C(=O)NC2=O)c2ccccc21` [2-[1-(3-dimethylaminopropyl)-indol-3-yl]-3-(indol-3-yl)maleimide], for which, in experiment [2], the IC50 (as a rule, the concentration needed to halve the response being measured) is over 20 µM.
The same measure, in the same setting: the same measure for `Cn1cc(C2=C(c3cn(C)c4ccccc34)C(=O)NC2=O)c2ccccc21` [3,4-bis(1-methyl-1H-indol-3-yl)-2,5-dihydro-1H-pyrrole-2,5-dione]: over 20 µM; for `O=C1NC(=O)c2c1c1c3ccccc3[nH]c1c1c2c2ccccc2n1CCCO` [3-(3-hydroxypropyl)-3,13,23-triazahexacyclo[14.7.0.0^{2,10}.0^{4,9}.0^{11,15}.0^{17,22}]tricosa-1(16),2(10),4(9),5,7,11(15),17(22),18,20-nonaene-12,14-dione]: over 20 µM.
The same measure, in the same setting: the same measure for `Cn1cc(C2=C(c3cn(CC(O)CO)c4ccccc34)C(=O)NC2=O)c2ccccc21` (stereo unspecified) [3-[1-(2,3-dihydroxypropyl)-1H-indol-3-yl]-4-(1-methyl-1H-indol-3-yl)-2,5-dihydro-1H-pyrrole-2,5-dione]: over 20 µM; for `Cn1c2ccccc2c2c3c(c4c5ccccc5[nH]c4c21)C(=O)NC3=O` [3-methyl-3,13,23-triazahexacyclo[14.7.0.0^{2,10}.0^{4,9}.0^{11,15}.0^{17,22}]tricosa-1(16),2(10),4(9),5,7,11(15),17(22),18,20-nonaene-12,14-dione]: over 20 µM.
`O=C1NC(=O)c2c1c1c3ccccc3[nH]c1c1[nH]c3ccccc3c21` [6,7,12,13-Tetrahydro-5,7-dioxo-5H-indolo[2,3-a]pyrrolo[3,4-c]carbazole] came in with an IC50 in experiment [2] of over 20 µM.
The compound `COc1ccc2c(c1)[nH]c1c3[nH]c4cc(OC)ccc4c3c3c(c21)C(=O)NC3=O` [6,20-dimethoxy-3,13,23-triazahexacyclo[14.7.0.0^{2,10}.0^{4,9}.0^{11,15}.0^{17,22}]tricosa-1(16),2(10),4(9),5,7,11(15),17(22),18,20-nonaene-12,14-dione] gave an IC50 in experiment [2] of over 20 µM.
The compound `O=C1NC(=O)c2c1c1c3ccccc3n3c1c1c2c2ccccc2n1[C@H]1CC[C@@H]3O1` [28-oxa-4,14,19-triazaoctacyclo[12.11.2.1^{15,18}.0^{2,6}.0^{7,27}.0^{8,13}.0^{19,26}.0^{20,25}]octacosa-1(26),2(6),7(27),8(13),9,11,20(25),21,23-nonaene-3,5-dione] registered an IC50 in experiment [1] of 540 nM.
In turn, `Cn1c2ccccc2c2c3c(c4c5ccc(Br)cc5[nH]c4c21)C(=O)NC3=O` [indolocarbazole deriv. 4(f)] registered a half-inhibitory concentration (IC50) in experiment [2] of over 20 µM.
Take `Cn1c2ccccc2c2c3c(c4c5ccc(F)cc5[nH]c4c21)C(=O)NC3=O` [indolocarbazole deriv. 4(h)]: the IC50 in experiment [2] was over 20 µM.
